Ends that are not written are not given here.
Experiments:
[1] = test system: mice with myocardial fibrosis; test: Isoprenaline-induced myocardial fibrosis model; assay type: in vivo; conditions: BALB/c mice, isoprenaline 5 mg/kg 7 days; 12 mg/kg s.c. twice a day
Procedure: 1. Experimental Mice: 10-Week-Old Male BALB/c Mice (with an Average Weight of 20 g).
In the model group, the experimental mice were injected with isoprenaline (ISO) (5 mg/kg) subcutaneously on the back of the mice every day for 7 consecutive days, and the mice were injected with normal saline subcutaneously (200 μL/mouse) every day. In the blank group, normal saline was injected subcutaneously (200 μL/mouse) every day. While a model was made, polypeptide drugs were administrated for treatment by subcutaneous injection. After the 8th day, blood was taken and was centrifuged, the supernatant was taken, and the content of TGF-β1 in serum was detected.

Mycoplasma pneumoniae = test: Mouse pneumonia model, mycoplasma pneumonia; assay type: in vivo, BALB/C mice; set-up: unit not given here; conditions: nasal drip, average values + standard deviation
From the text: (§1) A mouse pneumonia model was successfully established by using a nasal drip method. BALB/C mice with a body weight of 18-24 g were selected, and then anesthetized with ether on day 0, day 1 and day 2, respectively, prepared Streptococcus pneumoniae bacteria solution, adenovirus concentrated solution, Mycoplasma pneumoniae, Chlamydia pneumoniae, protozoa and pneumonia fungi were slowly dropped into the nasal cavity of the mice, so that the bacteria solutions entered the trachea and bronchi, and the bacteria solutions were prevented from flowing into the esophagus during the operation to avoid inactivation of the bacteria solutions, so that the mouse pneumonia model was established. After the model was successfully established, the polypeptide according to the present disclosure was administered, as shown in FIG. 9 and Table 7. […] The experimental results are represented on the basis of average values+standard deviation.

[2] = test system: multiple pulmonary infections; test: Mouse pneumonia model, pneumonia caused by pulmonary infections; assay type: in vivo, BALB/C mice; set-up: unit not given here; conditions: nasal drip, average values + standard deviation
From the text: as §1

[3] = test system: SD rats with bleomycin-induced pulmonary fibrosis; test: Bleomycin-induced pulmonary fibrosis animal model; assay type: in vivo; conditions: for Survival rate (%): bleomycin 5 mg/kg intratracheal, polypeptides 10 mg/kg subcutaneous twice a day for 14 days, positive drug Nintedanib intragastric once a day, model group 57.1%; for reduction of HYP in lung tissues compared with the positive drug / content of HYP in lung tissues, difference from model group / content of TGF-β1 in serum, difference from model group: bleomycin-induced pulmonary fibrosis; for reduction of HYP in lung tissues compared with the positive drug: comparison with Nintedanib; for content of HYP in lung tissues, difference from model group / content of TGF-β1 in serum, difference from model group: polypeptides 10 mg/kg s.c. twice a day, Nintedanib 25 mg/kg intragastric once a day, 14 days
Procedure: Source and strain: clean SD rats, provided by Comparative Medicine Center of Yangzhou University (laboratory animal production license: SCXK (Su) 2012-0004); Certification of Using of Laboratory Animal: SYXK (Su) 2012-0035).
SD rats were anesthetized by intraperitoneal injection of 1 mL/100 g 4% chloral hydrate. After anesthesia, the rats were fixed and their necks were disinfected by using cotton with 75% alcohol. The skin of the rat neck was longitudinally cut with scissors, and the fascia and muscle were longitudinally bluntly torn with tweezers to expose the trachea. A syringe was inserted into the trachea to inject 5 mg/kg bleomycin, while a blank group was injected with an equal amount of normal saline. Then a rat plate was quickly erected and rotated, the rats' breathing was observed, the neck wound was sterilized after rotation and was sewn, and an amoxicillin anti-inflammatory drug was sprinkled on the suture. After the operation, the rats were put back into a dry and clean cage for resting, waiting was performed for awakening. The rats were awakened after about 1-2 hours, and then fed normally. On the 7th day after modeling, modeling group animals randomly fell into a model group, a Nintedanib positive drug group, polypeptide I, II, III and IV dosage groups, and a normal control group, and the groups were administered separately for an administration cycle of 14 days. Living situations of rats were observed every day and their weights were weighed. After administration for 14 days, the eyeballs were removed and blood was taken, the rats were dissected, and lungs were taken. The content of TGF-β1 in serum and the content of HYP in lung tissues were detected.

adenovirus = test: Mouse pneumonia model, viral pneumonia; assay type: in vivo, BALB/C mice; set-up: unit not given here; conditions: nasal drip, average values + standard deviation
From the text: as §1

[4] = test system: SD rats with CCl4-induced hepatic fibrosis; test: CCl4-induced hepatic fibrosis animal model; assay type: in vivo; conditions: CCl4 8 weeks, polypeptides 6 mg/kg s.c. once a day, colchicine intragastric 5 times/week
Procedure: Source and strain: SPF level, SD rats, provided by Shanghai Xipuer-Bikai laboratory Animal Co., Ltd. (laboratory animal license: SCXK (hu) 2013-0016)
There were 10 rats in each group. Modeling was performed on the rats. Each group other than the blank group was injected with 40% CCl4 intraperitoneally twice a week, the first injection was performed at 3 mL/kg, and then administration was performed at 2 mL/kg. Administration was performed for 8 weeks, and a total of 16 injections were provided to induce hepatic fibrosis. After the intraperitoneal injection of CCl4 for the fourth time, polypeptide therapy was started on the next day, and administration was performed by subcutaneous injection once a day until the end of induction. After the intraperitoneal injection of CCl4 for the fourth time, colchicine was administrated on the next day at 200 μg/kg, 5 times a week, and intragastric administration therapy was implemented. After induction for 8 weeks, the administration was stopped. On the second day, the SD rats were dissected, blood was taken, and the liver tissue was taken and stored in a refrigerator at −80° C. for later use. The expressions of AST and ALT in serum and HYP in the rat liver tissue were detected.

[5] = test system: SD rats with renal fibrosis; test: Renal fibrosis model (ureter ligation); assay type: in vivo; conditions: 6 mg/kg s.c. twice a day, 14 days
Procedure: Clean grade male SD rats, purchased from Nanjing Qinglong Mountain Animal Farm, and weighed 180-200 g at the time of purchase, 190-210 g at the beginning of modeling, and 180-200 g at the beginning of administration.
A renal fibrosis animal model was established. SD rats were anesthetized with 4% chloral hydrate, injected with 1 mL/100 g intraperitoneally, fixed to an operation board, and sterilized in an operation area for later use. […] Muscular layers and abdominal walls were sewed layer by layer, the suture was disinfected with alcohol. After SD rats woke up, the rats were put into a cage for feeding. In the blank group, ureter was not ligated, and other steps were the same.
Then, the animals fell into a blank group, a model group, and polypeptide administration groups, with 10 animals in each group, and the administration was started on the second day after the operation, and was performed for 14 days. After administration for 14 days, blood was taken and supernatant was taken to detect the content of TGF-β1 in serum.

protozoa = test: Mouse pneumonia model, protozoal pneumonia; assay type: in vivo, BALB/C mice; set-up: unit not given here; conditions: nasal drip, average values + standard deviation
From the text: as §1

pneumonia fungi = test: Mouse pneumonia model, fungal pneumonia; assay type: in vivo, BALB/C mice; set-up: unit not given here; conditions: nasal drip, average values + standard deviation
From the text: as §1

Streptococcus pneumoniae = test: Mouse pneumonia model, bacterial pneumonia; assay type: in vivo, BALB/C mice; set-up: unit not given here; conditions: nasal drip, average values + standard deviation
From the text: as §1

Chlamydia pneumoniae = test: Mouse pneumonia model, chlamydia pneumonia; assay type: in vivo, BALB/C mice; set-up: unit not given here; conditions: nasal drip, average values + standard deviation
From the text: as §1

mice with skin fibrosis = test: Bleomycin-induced skin fibrosis model; assay type: in vivo, C57/BL black mice; conditions: C57/BL mice, bleomycin s.c. 28 days; 10 mg/kg s.c. twice a day
Procedure: Male C57/BL black mice aged 6-8 weeks, purchased from Nanjing Qinglong Mountain Animal Farm. Bleomycin (10 μg/mL) was injected subcutaneously every day for 28 days to form skin fibrosis. During the modeling period, the administration groups were given polypeptide drugs twice a day for treatment. After modeling, the mice were killed on the next day, and the skin tissue of the mouse back was taken to detect the content of HYP in the skin tissue. [table]

Sequence	content of TGF-β1 in serum, difference from model group [1]	Inhibitory effect on pulmonary infections: Mycoplasma pneumonia (Mycoplasma pneumoniae)	Inhibitory effect on pulmonary infections: Pneumonia caused by pulmonary infections [2]	Survival rate (%) [3]	reduction of HYP in lung tissues compared with the positive drug [3]	content of HYP in lung tissues, difference from model group [3]	content of TGF-β1 in serum, difference from model group [3]	Inhibitory effect on pulmonary infections: Viral pneumonia (adenovirus)	content of AST in serum, difference from model group [4]	content of HYP in the liver tissue, difference from model group [4]	content of TGF-β1 in serum, difference from model group [5]	Inhibitory effect on pulmonary infections: Protozoal pneumonia (protozoa)	Inhibitory effect on pulmonary infections: Fungal pneumonia (pneumonia fungi)	Inhibitory effect on pulmonary infections: Bacterial pneumonia (Streptococcus pneumoniae)	Inhibitory effect on pulmonary infections: Chlamydia pneumonia (Chlamydia pneumoniae)	content of HYP in the skin tissue, difference from model group (mice with skin fibrosis)
PRCYRGEGGGGIVRRADRAAVPGGGGRGD [Polypeptide II]	highly significantly different from the model group (*P<0.05)	45.69 ± 5.72	63.15 ± 5.87	78.6%	better effects than the positive drug	highly significantly different from the model group (*** P<0.001)	highly significantly different from the model group (*** P<0.001)	50.27 ± 8.08	highly significantly different from the model group (*** P<0.001)	highly significantly different from the model group (*** P<0.001)	highly significantly different from the model group (*** P<0.001)	63.60 ± 6.16	60.32 ± 3.07	41.25 ± 9.48	45.81 ± 5.21	highly significantly different from the model group (*P<0.05)
PRCWCGEGGGGIVRRADRAAVPGGGGRGD (cysteine pairing not given here) [Polypeptide III]	highly significantly different from the model group (** P<0.01)	43.93 ± 5.53	56.81 ± 3.13	85.7%	–	significantly different from the model group (*P<0.05)	highly significantly different from the model group (*** P<0.001)	67.49 ± 9.94	highly significantly different from the model group (*** P<0.001)	highly significantly different from the model group (*** P<0.001)	highly significantly different from the model group (** P<0.01)	64.29 ± 8.70	62.88 ± 5.94	47.29 ± 8.76	56.40 ± 5.49	highly significantly different from the model group (*P<0.05)
PRCYCGEGGGGIVRRADRAAVPGGGGRGD (cysteine pairing not given here) [Polypeptide IV]	highly significantly different from the model group (*P<0.05)	41.20 ± 7.30	50.99 ± 6.88	92.9%	–	highly significantly different from the model group (** P<0.01)	highly significantly different from the model group (** P<0.01)	70.33 ± 9.27	highly significantly different from the model group (*** P<0.001)	highly significantly different from the model group (*** P<0.001)	highly significantly different from the model group (*** P<0.001)	62.16 ± 3.28	53.22 ± 4.14	43.69 ± 8.66	45.86 ± 5.22	highly significantly different from the model group (*P<0.05)
PRCWRGEGGGGIAVVRRADRAPGGGGRGD [Polypeptide I]	highly significantly different from the model group (** P<0.01)	36.48 ± 5.55	47.52 ± 7.88	85.7%	better effects than the positive drug	highly significantly different from the model group (*** P<0.001)	highly significantly different from the model group (*** P<0.001)	50.00 ± 6.84	highly significantly different from the model group (*** P<0.001)	highly significantly different from the model group (*** P<0.001)	highly significantly different from the model group (*** P<0.001)	48.16 ± 5.46	47.54 ± 9.68	34.83 ± 7.95	37.18 ± 7.46	highly significantly different from the model group (** P<0.01)
